Data reported in US7834164B2 (priority 2006, dated 2010).
“Also recorded” adds a separate entry of the source. Bridge positions count the residues as written; N and C are the ends. Square brackets hold non-standard residues; d marks the D form. Ends that are not written are not given here. Peptide text beside a SMILES is read from it. mPEG 20 kDa = 20 kDa monomethoxy-PEG attached via aldehyde at the N-terminus; hArg = N=C(N)NCCCC[C@H](N)C(=O)O

How the values were obtained:
human Kv1.3 [1] = target: T1, human Kv1.3 (Homo sapiens, UniProt P22001); format: cell-based; design: host or cells: HEK293
T1 sequence (P22001 whole entry): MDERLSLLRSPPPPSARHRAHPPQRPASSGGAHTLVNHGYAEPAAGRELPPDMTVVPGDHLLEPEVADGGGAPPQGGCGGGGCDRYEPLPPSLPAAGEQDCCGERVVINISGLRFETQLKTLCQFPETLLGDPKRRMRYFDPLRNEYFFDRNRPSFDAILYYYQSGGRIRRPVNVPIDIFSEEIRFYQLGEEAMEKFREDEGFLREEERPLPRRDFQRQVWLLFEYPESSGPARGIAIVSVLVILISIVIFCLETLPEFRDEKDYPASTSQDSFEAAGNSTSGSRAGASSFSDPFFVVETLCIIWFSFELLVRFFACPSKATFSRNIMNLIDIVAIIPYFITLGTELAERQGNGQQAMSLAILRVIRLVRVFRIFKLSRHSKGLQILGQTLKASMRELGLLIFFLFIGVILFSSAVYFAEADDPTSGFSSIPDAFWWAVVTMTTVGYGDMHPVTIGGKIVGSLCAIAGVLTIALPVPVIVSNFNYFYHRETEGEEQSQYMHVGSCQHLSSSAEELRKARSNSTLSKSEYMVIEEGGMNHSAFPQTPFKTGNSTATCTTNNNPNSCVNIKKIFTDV

[2] = tested on: IL-2 production in human whole blood; format: cell-based
[3] = tested on: IFN-g production in human whole blood; format: cell-based
[4] = tested on: IFNγ production from human PBMCs; format: cell-based
[5] = tested on: IFNγ production from human PBMCs; format: cell-based; remark: listed apart in the source
[6] = tested on: T cell proliferation in human PBMCs; experiment: T cell proliferation (3H-thymidine incorporation), anti-CD3/anti-CD28 stimulated PBMCs; format: cell-based; details: aCD3/aCD28 stimulated PBMCs from two normal donors
From the text: Inhibition of T cell proliferation following anti-CD3 and anti-CD28 antibody stimulation of PBMCs. PBMC's were previously isolated from normal human donor Leukophoresis packs, purified by density gradient centrifugation (Ficoll Hypaque), cryopreserved in CPZ Cryopreservation Medium Complete (INCELL, MCPZF-100 plus 10% DMSO final). PBMC's were thawed (95% viability), washed, and seeded at 2×10^5 cells per well in culture medium (RPMI medium 1640; GIBCO) supplemented with 10% fetal calf serum, 100 U/ml penicillin, […] streptomycin, 2 mM L-glutamine, 100 μM non-essential amino acids, and 20 μM 2-ME) in 96-well flat-bottom tissue culture plates. Cells were pre-incubated with either anti-human CD32 (FcyRII) blocking antibody (per manufacturers instructions EASY SEP Human Biotin Selection Kit #18553, StemCell Technologies Vancouver, BC) or Fc-L10-ShK (100 nM-0.001 nM final) for 45 min. Fc-L10-ShK (100 nM-0.001 nM final) was then added to the cells containing anti-human CD32 blocking antibody while medium was added to the cells containing Fc-L10-ShK. Both sets were incubated for an additional 45 min before stimulating for 48 hr with aCD3/aCD28 (0.2 ng/ml and 100 ng/ml, respectively). Final assay volume was 200 ul. […] Cells were then harvested onto glass fiber filters and radioactivity was measured in a B-scintillation counter.

[7] = tested on: CD40L on T cells in human whole blood; format: cell-based
[8] = tested on: IL-2R on T cells in human whole blood; format: cell-based
human Kv1.3 [9] = target: T1, human Kv1.3; experiment: Immunohistochemistry, binding to HEK 293 cells overexpressing human Kv1.3; design: expressed in transfected cells; details: 5 μg/ml, fixed cells, confocal microscopy
Description: Immunohistochemistry analysis of Fc-L10-ShK[1-35] binding to HEK 293 cells overexpressing human Kv1.3. HEK 293 cells overexpressing human Kv1.3 (HEK Kv1.3) were obtained from BioFocus plc (Cambridge, UK) and maintained per manufacturer's recommendation. The parental HEK 293 cell line was used as a control. Cells were plated on Poly-D-Lysine 24 well plates (#35-4414; Becton-Dickinson, Bedford, Mass.) and allowed to grow to approximately 70% confluence. HEK KV1.3 were plated at 0.5×10e5 cells/well in 1 ml/well of medium. HEK 293 cells were plated at a density of 1.5×10e5 cells/well in 1 ml/well of medium. Before staining, cells were fixed with formalin (Sigma HT50-1-1 Formalin solution, diluted 1:1 with PBS/0.5% BSA before use) by removing cell growth medium, adding 0.2 ml/well formalin solution and incubating at room temperature for ten minutes. Cells were stained by incubating with 0.2 ml/well of 5 μg/ml Fc-L10-ShK[1-35] in PBS/BSA for 30′ at room temperature. Fc-L10-ShK[1-35] was aspirated and then the cells were washed one time with PBS/0.5% BSA. Detection antibody (Goat F(ab)2 anti-human IgG-phycoerythrin; Southern Biotech Associates, Birmingham, Ala.) was added to the wells at 5 μg/ml in PBS/0.5% BSA and incubated for 30′ at room temperature. Wash cells once with PBS/0.5% BSA and examine using confocal microscopy (LSM 510 Meta Confocal Microscope; Carl Zeiss AG, Germany). […]

human Kv1.3 [10] = target: T1, human Kv1.3; format: binding; design: expressed in transfected cells

N-Terminally PEGylated-Des-Arg1-ShK: folded ShK[2-35] N-terminally mono-PEGylated with 20 kDa MeO-PEG-aldehyde by reductive amination ({mPEG 20 kDa}-SCIDTIPKSRCTAFQCKHSMKYRLSFCRKTCGTC; also: folded, disulfides present but pairing not given here)
block of human Kv1.3 current (in words) (human Kv1.3 [1]): active in blocking human Kv1.3

Fc-L10-ShK[2-35]: human IgG1 Fc fused via 10 amino acid linker to ShK[2-35]
thapsigargin-induced IL-2 production in human whole blood (in words) [2]: suppressed | thapsigargin-induced IFN-g production in human whole blood (in words) [3]: suppressed

Fc-L10-ShK[1-35]: Fc region of human IgG1 fused via L10 linker to Kv1.3 inhibitor peptide ShK[1-35]
extent of inhibition of IFNγ production [4]: complete inhibition | extent of inhibition of IFNg production [5]: nearly complete inhibition | inhibition of T cell proliferation [6]: potently inhibits proliferation of T cells in a dose-dependent manner | thapsigargin-induced upregulation of CD40L on T cells in human whole blood (in words) [7]: suppressed | thapsigargin-induced upregulation of the IL-2R on T cells in human whole blood (in words) [8]: suppressed | binding to Kv1.3 overexpressing versus untransfected HEK 293 cells (human Kv1.3 [9]): binds to Kv1.3 overexpressing HEK 293 cells but shows little binding to untransfected cells | response in enzyme-immunoassay on fixed HEK 293 cells stably transfected with human Kv1.3 (human Kv1.3 [10]): dose-dependent increase in response

SEQ ID No: 4989: OSK1 analog without beta strand 1 (labeled des 1-7), Table 42 (CKISRQCLKPCKDAGMRFGKCMNGKCHC-NH2; ends and bridges not checked)
blockade of the whole blood cytokine response (IL-2 and IFNg; in words) [2]: retain activity in blocking inflammation

Fc-L10-OSK1[K7S,E16K,K20D]: Fc-L10 fusion of OSK1 with K7S, E16K and K20D substitutions
hKv1.1/hKv1.3 (human Kv1.3 [1]): 12

IbTx: BKCa channel inhibitor peptide, purchased from Bachem (QFTDVDCSVSKECWSVCKDLFGVDRGKCMGKKCRCYQ; Definition of Artificial Sequence: Synthetic peptide)
thapsigargin-induced IL-2 production in human whole blood (in words) [2]: no significant activity | thapsigargin-induced IFN-g production in human whole blood (in words) [3]: no significant activity | thapsigargin-induced upregulation of CD40L on T cells in human whole blood (in words) [7]: no significant activity | thapsigargin-induced upregulation of the IL-2R on T cells in human whole blood (in words) [8]: no significant activity

CC[C@H](C)[C@@H]1NC(=O)[C@H](CCCCN)NC(=O)[C@@H](NC(=O)[C@H](CCCCN)NC(=O)[C@@H](NC(=O)[C@H](CC(N)=O)NC(=O)[C@@H](NC(=O)[C@@H](NC(=O)[C@@H](NC(=O)CN)C(C)C)[C@@H](C)CC)[C@@H](C)CC)C(C)C)CSSC[C@@H]2NC(=O)[C@H](CCCCN)NC(=O)CNC(=O)[C@H](Cc3ccccc3)NC(=O)[C@H](CCCNC(=N)N)NC(=O)[C@H](CCSC)NC(=O)CNC(=O)[C@H](C)NC(=O)[C@H](CCCCN)NC(=O)[C@H](CCCCN)NC(=O)[C@@H]3CSSC[C@@H](C(=O)N[C@H](C(=O)N4CCC[C@H]4C(=O)N[C@@H](CCCCN)C(=O)O)[C@@H](C)O)NC(=O)[C@H](Cc4c[nH]cn4)NC(=O)[C@H](CSSC[C@H](NC(=O)[C@H](CCC(N)=O)NC(=O)[C@H](CCCNC(=N)N)NC(=O)[C@H](CO)NC1=O)C(=O)N[C@@H](CC(C)C)C(=O)N[C@@H](CCC(=O)O)C(=O)N1CCC[C@H]1C(=O)N3)NC(=O)[C@H](CCCCN)NC(=O)CNC(=O)[C@H](CC(N)=O)NC(=O)[C@H](C)NC2=O [OSK1[Ala-29]] (H-GVIINVKCKISRQCLEPCKKAGMRFGKCANGKCHCTPK-OH; disulfide 8-28, 14-33, 18-35)
potency in blocking the cytokine response relative to cyclosporin A [2]: several orders of magnitude more potent

Fc-L10-OSK1[K7S]: Fc-L10 fusion of OSK1 with lysine to serine at position 7
hKv1.1/hKv1.3 (human Kv1.3 [1]): 269

Fc-L10-OSK1[E16K,K20D]: Fc-L10 fusion of OSK1 with E16K and K20D substitutions (GVIINVKCKISRQCL[hArg]PCKDAGMRFGKCMNGKCACGGG; cysteine pairing not given here; also: Fc-L10 fusion)
fold difference in Kv1.3 potency compared to Fc-L10-OSK1 (human Kv1.3 [1]): 1.3 fold | hKv1.1/hKv1.3 (human Kv1.3 [1]): 403

B1: FcLoop-L2-ShK-L2: ShK inserted into human IgG1 Fc loop with Gly linkers (protein)
chain: MDKTHTCPPCPAPELLGGPSVFLFPPKPKDTLMISRTPEVTCVVVDVSHEDPEVKFNWYVDGVEVHNAKTKPREEQYNSTYRVVSVLTVLHQDWLNGKEYKCKVSNKALPAPIEKTISKAKGQPREPQVYTLPPSRDELGGRSCIDTIPKSRCTAFQCKHSMKYRLSFCRKTCGTCGGTKNQVSLTCLVKGFYPSDIAVEWESNGQPENNYKTTPPVLDSDGSFFLYSKLTVDKSRWQQGNVFSCSVMHEALHNHYTQKSLSLSPGK
modifications: Definition of Artificial Sequence: Synthetic protein
blockade of the whole blood cytokine response (IL-2 and IFNg; in words) [2]: potent blockade

B2: PEGylated CH2-OSK1: CH2-OSK1 fusion protein mono-PEGylated with 20 kD methoxy-PEG-aldehyde (conjugate)
chain: MGGHHHHHHGGGPSVFLFPPKPKDTLMISRTPEVTCVVVDVSHEDPEVKFNWYVDGVEVHNAKTKPREEQYNSTYRVVSVLTVLHQDWLNGKEYKCKVSNKALPAPIEKTISGGGGSGGGGSGVIINVKCKISRQCLEPCKKAGMRFGKCMNGKCHCTPK
blockade of the whole blood cytokine response (IL-2 and IFNg; in words) [2]: active in blocking inflammation; also recorded: modest blockade

B3: FcLoop-L2-OsK1-L2: OsK1 inserted into human IgG1 Fc loop between Leu139 and Thr140 with Gly linkers (protein)
chain: MDKTHTCPPCPAPELLGGPSVFLFPPKPKDTLMISRTPEVTCVVVDVSHEDPEVKFNWYVDGVEVHNAKTKPREEQYNSTYRVVSVLTVLHQDWLNGKEYKCKVSNKALPAPIEKTISKAKGQPREPQVYTLPPSRDELGGGVIINVKCKISRQCLEPCKKAGMRFGKCMNGKCHCTPKGGTKNQVSLTCLVKGFYPSDIAVEWESNGQPENNYKTTPPVLDSDGSFFLYSKLTVDKSRWQQGNVFSCSVMHEALHNHYTQKSLSLSPGK
modifications: Definition of Artificial Sequence: Synthetic protein
blockade of the whole blood cytokine response (IL-2 and IFNg; in words) [2]: potent blockade
